From patent US20260285850A1, “SUBSTITUTED OXAZOLIDINONES AND IMIDAZOLINONES AS HERBICIDES” (FMC CORPORATION, priority 2023, published 2026)

Columns and labels:
Format in all cases: in vivo
[1] = test system: palmer (palmer amaranth, palmer pigweed, Amaranthus palmeri); experiment: Test A preemergence soil spray, visual injury rating 0-100; settings: 10 days
In short: (§1)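 Visual injury ratings (0, no effect; 100, complete control) were assigned relative to untreated plants 10 days after treatment. Test chemicals, formulated with a surfactant-containing non-phytotoxic solvent, were applied in loam-sand soil either as a directed soil spray before emergence or to emerged plants, and plants were kept in a greenhouse.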

[2] = test system: wheat (Triticum aestivum); experiment: as above; settings: 10 days
In short: as §1

[3] = test system: ragweed (common ragweed, Ambrosia artemisiifolia); experiment: as above; settings: 10 days
In short: as §1

[4] = test system: ryegrass, Italian (italian ryegrass, Lolium multiflorum); experiment: as above; settings: 10 days
In short: as §1

[5] = test system: barnyardgrass (Echinochloa crus-galli); experiment: as above; settings: 10 days
In short: as §1

corn (Zea mays) [6] = experiment: as above; settings: 10 days
In short: as §1

[7] = test system: blackgrass (Alopecurus myosuroides); experiment: as above; settings: 10 days
In short: as §1

soybean (Glycine max) [8] = experiment: as above; settings: 10 days
In short: as §1

kochia (Bassia scoparia) [9] = experiment: as above; settings: 10 days
In short: as §1

[10] = test system: green foxtail (Setaria viridis); experiment: as above; settings: 10 days
In short: as §1

[11] = test system: oat, wild (wild oat, Avena fatua); experiment: as above; settings: 10 days
In short: as §1

[12] = test system: ducksalad (Heteranthera limosa); experiment: Test B flooded paddy test, visual plant response rating 0-100; settings: 250 g ai/ha, Flood, applied to paddy water, evaluated after 13 days
In short: (§2)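 Plants were grown to the 2-leaf stage, then pots were flooded to 3 cm above the soil and compound was applied directly to the paddy water, with that depth kept throughout.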

rice (Oryza sativa) = experiment: as above; settings: 250 g ai/ha, Flood, applied to paddy water, evaluated after 13 days
In short: as §2

[13] = test system: sedge, umbrella (small-flower umbrella sedge, Cyperus difformis); experiment: as above; settings: 250 g ai/ha, Flood, applied to paddy water, evaluated after 13 days
In short: as §2

[14] = test system: barnyardgrass (Echinochloa crusgalli); experiment: as above; settings: 250 g ai/ha, Flood, applied to paddy water, evaluated after 13 days
In short: as §2

[15] = test system: palmer (palmer amaranth, palmer pigweed, Amaranthus palmeri); experiment: Test A postemergence application, visual injury rating 0-100
In short: as §1

[16] = test system: horseweed (Erigeron canadensis); experiment: as above
In short: as §1

[17] = test system: wheat (Triticum aestivum); experiment: as above
In short: as §1

[18] = test system: ragweed (common ragweed, Ambrosia artemisiifolia); experiment: as above
In short: as §1

[19] = test system: ryegrass, Italian (italian ryegrass, Lolium multiflorum); experiment: as above
In short: as §1

[20] = test system: barnyardgrass (Echinochloa crus-galli); experiment: as above
In short: as §1

corn (Zea mays) [21] = experiment: as above
In short: as §1

[22] = test system: blackgrass (Alopecurus myosuroides); experiment: as above
In short: as §1

soybean (Glycine max) [23] = experiment: as above
In short: as §1

kochia (Bassia scoparia) [24] = experiment: as above
In short: as §1

[25] = test system: green foxtail (Setaria viridis); experiment: as above
In short: as §1

[26] = test system: oat, wild (wild oat, Avena fatua); experiment: as above
In short: as §1

[27] = test system: galium (catchweed bedstraw, Galium aparine); experiment: as above
In short: as §1

[28] = 62 g ai/ha, 0 = no effect, 100 = complete control
[29] = 62 g ai/ha, postemergence, 10 days, 0 = no effect, 100 = complete control
[30] = Postemergence, 16 g ai/ha, greenhouse 10 days, 0 no effect, 100 complete control

## C=CC1(C(=O)NC2C=CC(C(=O)O)C2)CN(c2cc(F)cc(F)c2)C(=O)O1 (mixture of isomers) [Compound 166]
[1]; 16 g ai/ha, 0 to 100 scale
  Pigweed, Palmer plant response rating: 20
[1]; [28]
  Pigweed, Palmer plant response rating (0-100): 100
[2]; 16 g ai/ha, 0 to 100 scale
  Wheat plant response rating: 60
[2]; [28]
  Wheat plant response rating (0-100): 90
[3]; 16 g ai/ha, 0 to 100 scale
  Ragweed plant response rating: 0
[3]; [28]
  Ragweed plant response rating (0-100): 30
[4]; 16 g ai/ha, 0 to 100 scale
  Ryegrass, Italian plant response rating: 0
[4]; [28]
  Ryegrass, Italian plant response rating (0-100): 90
[5]; 16 g ai/ha, 0 to 100 scale
  Barnyardgrass plant response rating: 40
[5]; [28]
  Barnyardgrass plant response rating (0-100): 100
Corn (Zea mays) [6]; 16 g ai/ha, 0 to 100 scale
  Corn plant response rating: 20
Corn (Zea mays) [6]; [28]
  Corn plant response rating (0-100): 60
[7]; 16 g ai/ha, 0 to 100 scale
  Blackgrass plant response rating: 10
[7]; [28]
  Blackgrass plant response rating (0-100): 70
Soybean (Glycine max) [8]; 16 g ai/ha, 0 to 100 scale
  Soybean plant response rating: 20
Soybean (Glycine max) [8]; [28]
  Soybean plant response rating (0-100): 90
Kochia (Bassia scoparia) [9]; 16 g ai/ha, 0 to 100 scale
  Kochia plant response rating: 0
Kochia (Bassia scoparia) [9]; [28]
  Kochia plant response rating (0-100): 60
[10]; 16 g ai/ha, 0 to 100 scale
  Foxtail, Green plant response rating: 0
[10]; [28]
  Foxtail, Green plant response rating (0-100): 50
[11]; 16 g ai/ha, 0 to 100 scale
  Oat, Wild plant response rating: 0
[11]; [28]
  Oat, Wild plant response rating (0-100): 60
[12]
  Plant response rating, Ducksalad (0 to 100 scale, 0 is no effect and 100 is complete control): 85
Rice (Oryza sativa)
  Plant response rating, Rice (0 to 100 scale, 0 is no effect and 100 is complete control): 80
[13]
  Plant response rating, Sedge, Umbrella (0 to 100 scale, 0 is no effect and 100 is complete control): 95
[14]
  Plant response rating, Barnyardgrass (0 to 100 scale, 0 is no effect and 100 is complete control): 95
[15]; [29]
  Pigweed, Palmer plant response rating (0-100): 90
[15]; [30]
  Pigweed, Palmer plant response rating (0 to 100 scale): 90
[16]; [29]
  Horseweed plant response rating (0-100): 80
[16]; [30]
  Horseweed plant response rating (0 to 100 scale): 50
[17]; [29]
  Wheat plant response rating (0-100): 90
[17]; [30]
  Wheat plant response rating (0 to 100 scale): 90
[18]; [29]
  Ragweed plant response rating (0-100): 70
[18]; [30]
  Ragweed plant response rating (0 to 100 scale): 40
[19]; [29]
  Ryegrass, Italian plant response rating (0-100): 90
[19]; [30]
  Ryegrass, Italian plant response rating (0 to 100 scale): 60
[20]; [29]
  Barnyardgrass plant response rating (0-100): 100
[20]; [30]
  Barnyardgrass plant response rating (0 to 100 scale): 90
Corn (Zea mays) [21]; [29]
  Corn plant response rating (0-100): 100
Corn (Zea mays) [21]; [30]
  Corn plant response rating (0 to 100 scale): 90
[22]; [29]
  Blackgrass plant response rating (0-100): 90
[22]; [30]
  Blackgrass plant response rating (0 to 100 scale): 70
Soybean (Glycine max) [23]; [29]
  Soybean plant response rating (0-100): 100
Soybean (Glycine max) [23]; [30]
  Soybean plant response rating (0 to 100 scale): 80
Kochia (Bassia scoparia) [24]; [29]
  Kochia plant response rating (0-100): 80
Kochia (Bassia scoparia) [24]; [30]
  Kochia plant response rating (0 to 100 scale): 80
[25]; [29]
  Foxtail, Green plant response rating (0-100): 90
[25]; [30]
  Foxtail, Green plant response rating (0 to 100 scale): 30
[26]; [29]
  Oat, Wild plant response rating (0-100): 90
[26]; [30]
  Oat, Wild plant response rating (0 to 100 scale): 90
[27]; [29]
  Galium plant response rating (0-100): 90
[27]; [30]
  Galium plant response rating (0 to 100 scale): 70
